Experimental data from patent publication US4450269A, “Mono-5-substituted-3-chloro-4H-1,2,6-thiadiazin-4-one antifungal agents” (FMC Corporation, priority 1980, dated 1984).

Legend:
Experiment in all cases: Spore germination test
Type in all cases: cell-based
Erysiphe polygoni = settings: EP, 48 hours
Summary of the method: (§1)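 Compound in acetone was mixed into water agar at final 40, 10, 2.5 and 1 ppm and poured into quadrant dishes. Quadrants received spore suspension, while Erysiphe polygoni and Uromyces phaseoli spores were brushed on from infected leaves. After 48 h at 24 °C, the percentage of germinated spores was converted to a germination rating.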

Uromyces phaseoli = settings: UP, 48 hours
Summary of the method: as §1

Botrytis cinerea = settings: BC, 48 hours
Summary of the method: as §1

Row | Structure (SMILES) | Spore Germination Rating (Erysiphe polygoni; 1.0 ppm) | Spore Germination Rating (Erysiphe polygoni; 2.5 ppm) | Spore Germination Rating (Erysiphe polygoni; 10 ppm) | Spore Germination Rating (Erysiphe polygoni; 40 ppm) | Spore Germination Rating (Uromyces phaseoli; 1.0 ppm) | Spore Germination Rating (Uromyces phaseoli; 2.5 ppm) | Spore Germination Rating (Uromyces phaseoli; 10 ppm) | Spore Germination Rating (Uromyces phaseoli; 40 ppm) | Spore Germination Rating (Botrytis cinerea; 1.0 ppm) | Spore Germination Rating (Botrytis cinerea; 2.5 ppm) | Spore Germination Rating (Botrytis cinerea; 10 ppm) | Spore Germination Rating (Botrytis cinerea; 40 ppm)
1 | O=c1c(Cl)nsnc1Oc1ccccc1Br [Compound 34, 3-chloro-5-(2-bromophenoxy)-4H-1,2,6,-thiadiazin-4-one] | 0 (0-10) | 2 (40-60) | 0 (0-10) | 0 (0-10) | 0 (0-10) | 0 (0-10) | 0 (0-10) | 0 (0-10) | 2 (40-60) | 0 (0-10) | 0 (0-10) | 0 (0-10)
2 | C[S+]([O-])c1ccc(Oc2nsnc(Cl)c2=O)cc1 (stereo not drawn) [Compound 40, 3-chloro-5-[(4-methylsulfinyl)phenoxy]-4H-1,2,6,-thiadiazin-4-one] | 4 (80-100) | 4 (80-100) | 4 (80-100) | 1 (10-40) | 3 (60-80) | 2 (40-60) | 1 (10-40) | 1 (10-40) | 4 (80-100) | 4 (80-100) | 4 (80-100) | 3 (60-80)
3 | O=c1c(Cl)nsnc1Oc1cccc(Cl)c1Cl [Compound 19, 3-chloro-5-(2,3-dichlorophenoxy)-4H--1,2,6-thiadiazin-4-one] | 3 (60-80) | 1 (10-40) | 0 (0-10) | 0 (0-10) | 0 (0-10) | 0 (0-10) | 0 (0-10) | 0 (0-10) | 4 (80-100) | 1 (10-40) | 0 (0-10) | 0 (0-10)
4 | Cc1ccc(Oc2nsnc(Cl)c2=O)cc1 [Compound 3, 3-chloro-5-(4-methylphenoxy)-4H--1,2,6-thiadiazin-4-one] | 4 (80-100) | 4 (80-100) | 4 (80-100) | 1 (10-40) | 4 (80-100) | 1 (10-40) | 0 (0-10) | 0 (0-10) | 4 (80-100) | 4 (80-100) | 0 (0-10) | 0 (0-10)
5 | O=c1c(Cl)nsnc1Oc1cccc(C(F)(F)F)c1 [Compound 44, 3-chloro-5-[(3-trifluoromethyl)phenoxy]-4H--1,2,6-thiadiazin-4-one] | 3 (60-80) | 1 (10-40) | 0 (0-10) | 0 (0-10) | 1 (10-40) | 0 (0-10) | 0 (0-10) | 0 (0-10) | 4 (80-100) | 3 (60-80) | 0 (0-10) | 0 (0-10)
6 | CC(=O)c1ccc(Oc2nsnc(Cl)c2=O)cc1 [Compound 47, 3-(4-acetylphenoxy)-5-chloro-4H--1,2,6-thiadiazin-4-one] | 4 (80-100) | 4 (80-100) | 4 (80-100) | 1 (10-40) | 0 (0-10) | 0 (0-10) | 0 (0-10) | 0 (0-10) | 4 (80-100) | 1 (10-40) | 0 (0-10) | 0 (0-10)
7 | CCOC(=O)c1ccc(Oc2nsnc(Cl)c2=O)cc1 [Compound 7, 3-chloro-5-(4-ethoxycarbonylphenoxy)-4H--1,2,6-thiadiazin-4-one] | 4 (80-100) | 3 (60-80) | 2 (40-60) | 0 (0-10) | 0 (0-10) | 0 (0-10) | 0 (0-10) | 0 (0-10) | 4 (80-100) | 3 (60-80) | 2 (40-60) | 3 (60-80)
8 | CC(=O)Nc1ccccc1Oc1nsnc(Cl)c1=O [Compound 43, 3-[(2-acetylamino)-phenoxy]-5-chloro-4H--1,2,6-thiadiazin-4-one] | 4 (80-100) | 4 (80-100) | 4 (80-100) | 1 (10-40) | 4 (80-100) | 4 (80-100) | 4 (80-100) | 4 (80-100) | 4 (80-100) | 4 (80-100) | 4 (80-100) | 3 (60-80)
9 | O=c1c(Cl)nsnc1Oc1c(Cl)cccc1Cl [Compound 18, 3-chloro-5-(2,6-dichlorophenoxy)-4H--1,2,6-thiadiazin-4-one] | 2 (40-60) | 1 (10-40) | 0 (0-10) | 0 (0-10) | 0 (0-10) | 0 (0-10) | 0 (0-10) | 0 (0-10) | 4 (80-100) | 1 (10-40) | 0 (0-10) | 0 (0-10)
10 | Cc1ccc(Oc2nsnc(Cl)c2=O)c(C)c1 [Compound 23, 3-chloro-5-(2,4-dimethylphenoxy)-4H--1,2,6-thiadiazin-4-one] | 4 (80-100) | 4 (80-100) | 3 (60-80) | 1 (10-40) | 4 (80-100) | 4 (80-100) | 1 (10-40) | 0 (0-10) | 4 (80-100) | 4 (80-100) | 4 (80-100) | 0 (0-10)
11 | CC(C)(C)c1ccc(Oc2nsnc(Cl)c2=O)cc1 [Compound 4, 3-chloro-5-(4-tert-butylphnoxy)-4H--1,2,6-thiadiazin-4-one] | 4 (80-100) | 3 (60-80) | 2 (40-60) | 0 (0-10) | 4 (80-100) | 4 (80-100) | 0 (0-10) | 0 (0-10) | 4 (80-100) | 4 (80-100) | 4 (80-100) | 2 (40-60)
12 | N#Cc1ccc(Oc2nsnc(Cl)c2=O)cc1 [Compound 10, 3-chloro-5-(4-cyanophenoxy)-4H--1,2,6-thiadiazin-4-one] | 2 (40-60) | 2 (40-60) | 2 (40-60) | 1 (10-40) | 0 (0-10) | 0 (0-10) | 0 (0-10) | 0 (0-10) | 2 (40-60) | 0 (0-10) | 0 (0-10) | 0 (0-10)
13 | O=c1c(Cl)nsnc1Oc1ccc(Cl)c(Cl)c1 [Compound 16, 3-chloro-5-(3,4-dichlorophenoxy)-4H--1,2,6-thiadiazin-4-one] | 4 (80-100) | 3 (60-80) | 1 (10-40) | 4 (80-100) | 1 (10-40) | 0 (0-10) | 0 (0-10) | 0 (0-10) | 4 (80-100) | 1 (10-40) | 0 (0-10) | 1 (10-40)
14 | Cc1cc(Oc2nsnc(Cl)c2=O)cc(C)c1Cl [Compound 59, 3-chloro-5-[(4-chloro-3,5-dimethyl)phenoxy]-4H--1,2,6-thiadiazin-4-one] | 2 (40-60) | 1 (10-40) | 1 (10-40) | 1 (10-40) | 2 (40-60) | 2 (40-60) | 0 (0-10) | 0 (0-10) | 4 (80-100) | 4 (80-100) | 4 (80-100) | 3 (60-80)
15 | CC(=O)Nc1ccc(Oc2nsnc(Cl)c2=O)cc1 [Compound 8, 5-(4-acetylaminophenoxy)-3-chloro-4H--1,2,6-thiadiazin-4-one] | 4 (80-100) | 4 (80-100) | 4 (80-100) | 2 (40-60) | 4 (80-100) | 4 (80-100) | 0 (0-10) | 0 (0-10) | 4 (80-100) | 4 (80-100) | 4 (80-100) | 4 (80-100)
16 | CCCCOc1ccc(Oc2nsnc(Cl)c2=O)cc1 [Compound 6, 3-chloro-5-(4-n-butoxyphenoxy)-4H--1,2,6-thiadiazin-4-one] | 0 (0-10) | 0 (0-10) | 0 (0-10) | 0 (0-10) | 1 (10-40) | 0 (0-10) | 0 (0-10) | 0 (0-10) | 4 (80-100) | 4 (80-100) | 4 (80-100) | 4 (80-100)
17 | CNC(=O)Nc1ccc(Oc2nsnc(Cl)c2=O)cc1 [Compound 28, 3-chloro-5-[4-(3-methylureido)-phenoxy]-4H--1,2,6-thiadiazin-4-one] | 4 (80-100) | 4 (80-100) | 4 (80-100) | 4 (80-100) | 4 (80-100) | 2 (40-60) | 2 (40-60) | 2 (40-60) | 4 (80-100) | 1 (10-40) | 0 (0-10) | 0 (0-10)
